For one assay, the target named is Beta-lactamase TEM (Escherichia coli, UniProt P62593). Description: The compound was evaluated for inhibition against Beta-lactamase TEM […].
Another assay addresses Beta-lactamase class C (Enterobacter cloacae, UniProt Q59401). Description: Inhibition of Class C beta-lactamase from Enterobacter cloacae strain P99.
In a further assay the target is Beta-lactamase (Staphylococcus aureus, UniProt P00807). Description: The compound was evaluated for inhibition against Beta-lactamase derived from Staphylococcus aureus.

Each structure is given as a SMILES string.

Beta-lactamase TEM, sequence (P62593 whole entry): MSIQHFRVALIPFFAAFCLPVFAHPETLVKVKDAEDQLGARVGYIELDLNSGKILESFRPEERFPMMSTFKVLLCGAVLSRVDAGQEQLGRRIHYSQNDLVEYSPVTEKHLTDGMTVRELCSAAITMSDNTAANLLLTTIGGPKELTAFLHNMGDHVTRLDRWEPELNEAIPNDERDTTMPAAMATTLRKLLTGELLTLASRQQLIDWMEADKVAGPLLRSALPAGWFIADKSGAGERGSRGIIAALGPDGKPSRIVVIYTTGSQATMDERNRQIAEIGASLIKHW
Beta-lactamase class C, sequence (Q59401 whole entry): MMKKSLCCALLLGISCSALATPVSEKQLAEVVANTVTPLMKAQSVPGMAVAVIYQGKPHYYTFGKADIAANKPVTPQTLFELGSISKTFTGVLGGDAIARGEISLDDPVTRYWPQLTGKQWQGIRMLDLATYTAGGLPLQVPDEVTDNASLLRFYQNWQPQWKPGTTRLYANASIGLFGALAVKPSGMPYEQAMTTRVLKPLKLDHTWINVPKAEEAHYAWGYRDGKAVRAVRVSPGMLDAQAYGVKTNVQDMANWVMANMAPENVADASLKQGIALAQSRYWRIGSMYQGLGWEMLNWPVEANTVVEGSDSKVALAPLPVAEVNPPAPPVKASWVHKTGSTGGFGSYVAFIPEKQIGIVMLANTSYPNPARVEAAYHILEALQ
Beta-lactamase, sequence (P00807 whole entry): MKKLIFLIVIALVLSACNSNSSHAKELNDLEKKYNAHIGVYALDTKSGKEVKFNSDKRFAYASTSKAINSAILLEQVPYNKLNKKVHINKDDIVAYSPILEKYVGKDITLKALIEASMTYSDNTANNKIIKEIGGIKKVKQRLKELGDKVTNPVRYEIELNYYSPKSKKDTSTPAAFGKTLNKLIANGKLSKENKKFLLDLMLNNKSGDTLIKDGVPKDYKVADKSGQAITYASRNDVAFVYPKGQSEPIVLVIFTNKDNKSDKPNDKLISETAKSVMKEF

What is called IC50 is the concentration at which inhibition is half-maximal. On to `C=C1C(C)=C(C(=O)O)N2C(=O)/C(=C/C(=O)O)[C@H]2S1(=O)=O`, for which the IC50 against Beta-lactamase TEM came out at 277 µM; at Beta-lactamase class C, 36.8 µM.
For the compound `C=C1C(C)=C(C(=O)O)N2C(=O)/C(=C/c3ccccn3)[C@H]2S1(=O)=O`, the values for the IC50 on Beta-lactamase, on Beta-lactamase TEM and against Beta-lactamase class C were 1860 µM, 91.1 µM and 0.039 µM, respectively.
On to `C=C1C(CSc2nnnn2C)=C(C(=O)O)N2C(=O)/C(=C/C(=O)OC(C)(C)C)[C@H]2S1(=O)=O`, for which the IC50 was 1.13 µM against Beta-lactamase TEM and 2.38 µM against Beta-lactamase class C.
Regarding `C=C1C(COC(C)=O)=C(C(=O)O)N2C(=O)/C(=C/C(=O)OC(C)(C)C)[C@H]2S1(=O)=O`, the IC50 at Beta-lactamase class C came out at 1.55 µM.
As to `CSC(SC)=C1C(C)=C(C(=O)O)N2C(=O)/C(=C/c3ccccn3)[C@H]2S1(=O)=O`, the concentration for half-maximal inhibition (IC50) on Beta-lactamase TEM turned out to be 173 µM; against Beta-lactamase class C, 0.51 µM.
As for `CC(=O)OCC1=C(C(=O)O)N2C(=O)/C(=C/c3ccccn3)[C@H]2S(=O)(=O)C1`, the IC50 at Beta-lactamase was 402 µM; against Beta-lactamase TEM, 34.8 µM; against Beta-lactamase class C, 0.498 µM.
For the compound `CC(=O)OCC1=C(C(=O)O)N2C(=O)/C(=C/C(=O)OC(C)(C)C)[C@H]2S(=O)(=O)C1`, the IC50 at Beta-lactamase was found to be 977 µM; against Beta-lactamase TEM, 0.03 µM; against Beta-lactamase class C, 6.56 µM.
Take `C=C1C(COC(C)=O)=C(C(=O)O)N2C(=O)/C(=C/c3ccccn3)[C@H]2S1(=O)=O`: the IC50 on Beta-lactamase turned out to be 733 µM; against Beta-lactamase class C, 0.165 µM.
On to `CC1=C(C(=O)O)N2C(=O)/C(=C/c3ccccn3)[C@H]2S(=O)(=O)[C@@H]1Sc1nnnn1C`, for which the IC50 stood at 844 µM against Beta-lactamase, 31.6 µM against Beta-lactamase TEM and 29 µM at Beta-lactamase class C.
Turning to `C=C1C(COC(C)=O)=C(C(=O)O)N2C(=O)/C(=C/C(=O)O)[C@H]2S1(=O)=O`, the IC50 against Beta-lactamase was determined as 230 µM; against Beta-lactamase TEM, 498 µM; on Beta-lactamase class C, 2.49 µM.
Take `C=C1C(C)=C(C(=O)O)N2C(=O)/C(=C/C(=O)OC(C)(C)C)[C@H]2S1(=O)=O`: the IC50 against Beta-lactamase class C was 48.6 µM.
With `CC1=C(C(=O)O)N2C(=O)/C(=C/c3ccccn3)[C@H]2S(=O)(=O)C1C` (stereo partly drawn), the IC50 against Beta-lactamase is 102 µM; against Beta-lactamase TEM it was 74.1 µM; at Beta-lactamase class C it was 3.9 µM.

The record behind these values is ChEMBL document CHEMBL1133345, “The synthesis and evaluation of 2-substituted-7-(alkylidene)cephalosporin sulfones as beta-lactamase inhibitors” (Bioorg Med Chem Lett, 2000).
